Earlier results as cited in article PMC10323144, “Garbage in, garbage out: how reliable training data improved a virtual screening approach against SARS-CoV-2 MPro” (Frontiers in Pharmacology, 2023).
Numbered stars: 1 amine (or outer) side, 2 acyl side, 3 side chain; on linkers, the order of the positions; unused ones are H or OH. Bridge positions count the residues as written; N and C are the ends. Square brackets hold non-standard residues; d marks the D form. Peptide text beside a SMILES is read from it. * marks the point of attachment. hTyr(3S-OH,4S-OH,3'-OSO3H) = N[C@H](C(=O)O)[C@H](O)[C@@H](O)c1ccc(O)c(OS(=O)(=O)O)c1; Orn(4R-OH,5R-OH) = O=C([C@H](C[C@@H](O)[C@@H](O)N[*:3])N[*:1])[*:2]; Pro(3S-OH,4S-Me) = C[C@H]1CN[C@H](C(=O)O)[C@H]1O; X1 = CCCCCOc1ccc(-c2cc(-c3ccc(C(=O)*)cc3)no2)cc1; Gln(3R-OH) = NC(=O)C[C@@H](O)[C@H](N)C(=O)O; Hyp = O=C(O)[C@@H]1C[C@@H](O)CN1; Cbz = O=C(OCc1ccccc1)*; Nva = CCC[CH](N)C(=O)O

System: MPro
Details: compiled from peer-reviewed sources (287 compounds) ref the 18 original articles; cited from earlier work

SMILES	Class (MPro activity class)
COC(=O)C1=CO[C@@H](O[C@@H]2O[C@H](CO)[C@@H](O)[C@H](O)[C@H]2O)[C@@H]2[C@@H](C)[C@@H](O)C[C@H]12 [Loganin]	0 (compounds with IC50 > 20 μM, percentage inhibition <80% at 20 µM or 50 μM, or percentage enzyme inhibition <50% at 10 µM were labelled as INACTIVE)
CC(C)(C)C#Cc1cc(N(C(=O)[C@H]2CC[C@H](C)CC2)[C@H]2CC[C@H](O)CC2)c(C(=O)O)s1 [Lomibuvir]	0 (compounds with IC50 > 20 μM, percentage inhibition <80% at 20 µM or 50 μM, or percentage enzyme inhibition <50% at 10 µM were labelled as INACTIVE)
CC(C)CCNC(=O)C(CC(C)C)NC(=O)C1OC1C(=O)O (stereo not drawn) [Loxistatin Acid]	0 (compounds with IC50 > 20 μM, percentage inhibition <80% at 20 µM or 50 μM, or percentage enzyme inhibition <50% at 10 µM were labelled as INACTIVE)
O=c1cc(-c2ccc(O)c(O)c2)oc2cc(O[C@@H]3O[C@H](CO)[C@@H](O)[C@H](O)[C@H]3O)cc(O)c12 [Luteoloside]	0 (compounds with IC50 > 20 μM, percentage inhibition <80% at 20 µM or 50 μM, or percentage enzyme inhibition <50% at 10 µM were labelled as INACTIVE)
O=C(CCl)N1CCN(S(=O)(=O)C2=CC[SH]=C2)CC1 [MAK-UNK-d4768348-1]	1 (Compounds with IC50 < 10 µM or with a percentage of enzyme inhibition >50% at 10 µM were labelled as ACTIVE)
COc1ccc(C2CC(c3cccs3)=NN2C(=O)CCl)cc1OC (stereo not drawn) [MAT-POS-916a2c5a-1]	1 (Compounds with IC50 < 10 µM or with a percentage of enzyme inhibition >50% at 10 µM were labelled as ACTIVE)
COc1ccccc1OCCNC(=O)c1cc(=O)[nH]c2ccccc12 [MAT-POS-916a2c5a-2]	1 (Compounds with IC50 < 10 µM or with a percentage of enzyme inhibition >50% at 10 µM were labelled as ACTIVE)
Cc1cc(C)c(C)c(S(=O)(=O)N2CCN(C(=O)c3cc(=O)[nH]c4ccccc34)CC2)c1C [MAT-POS-916a2c5a-3]	1 (Compounds with IC50 < 10 µM or with a percentage of enzyme inhibition >50% at 10 µM were labelled as ACTIVE)
O=C(CCl)N1CCN(S(=O)(=O)c2ccsc2)CC1 [MAT-POS-ee51dedd-2]	1 (Compounds with IC50 < 10 µM or with a percentage of enzyme inhibition >50% at 10 µM were labelled as ACTIVE)
CC1CN(Cc2cccc(Cl)c2)CCN1C(=O)CCl (stereo not drawn) [MED-COV-4280ac29-13]	1 (Compounds with IC50 < 10 µM or with a percentage of enzyme inhibition >50% at 10 µM were labelled as ACTIVE)
O=C(CCl)N1CCN(Cc2cccc(Cl)c2)CC1 [MED-COV-4280ac29-15]	1 (Compounds with IC50 < 10 µM or with a percentage of enzyme inhibition >50% at 10 µM were labelled as ACTIVE)
COc1ccc(C2CC(c3ccccc3)=NN2C(=O)CCl)cc1OC (stereo not drawn) [MED-COV-4280ac29-30]	1 (Compounds with IC50 < 10 µM or with a percentage of enzyme inhibition >50% at 10 µM were labelled as ACTIVE)
O=C(CCl)N1CCN(Cc2cccc3ccccc23)CC1 [MED-COV-4280ac29-31]	1 (Compounds with IC50 < 10 µM or with a percentage of enzyme inhibition >50% at 10 µM were labelled as ACTIVE)
COCc1cc(Cl)cc(CN2CCN(C(=O)CCl)CC2)c1 [MED-COV-4280ac29-33]	1 (Compounds with IC50 < 10 µM or with a percentage of enzyme inhibition >50% at 10 µM were labelled as ACTIVE)
COCCc1ccc(Cl)cc1CN1CCN(C(=O)CCl)CC1 [MED-COV-4280ac29-37]	1 (Compounds with IC50 < 10 µM or with a percentage of enzyme inhibition >50% at 10 µM were labelled as ACTIVE)
CCCC(C=O)NC(=O)C(CC(C)C)NC(=O)C(CC(C)C)NC(=O)OCc1ccccc1 (stereo not drawn) [MG-115] (Cbz-Leu-Leu-[Nva]-aldehyde; configuration not given here)	1 (Compounds with IC50 < 10 µM or with a percentage of enzyme inhibition >50% at 10 µM were labelled as ACTIVE)
CC(C)C[C@@H](C=O)NC(=O)[C@H](CC(C)C)NC(=O)[C@H](CC(C)C)NC(=O)OCc1ccccc1 [MG-132] (Cbz-Leu-Leu-Leu-aldehyde)	1 (Compounds with IC50 < 10 µM or with a percentage of enzyme inhibition >50% at 10 µM were labelled as ACTIVE)
NS(=O)(=O)CCc1ccccc1CN1CCN(C(=O)CCl)CC1 [MIH-UNI-e573136b-5]	1 (Compounds with IC50 < 10 µM or with a percentage of enzyme inhibition >50% at 10 µM were labelled as ACTIVE)
O=C(O)CC[C@H]1CC[C@@](c2cc(F)ccc2F)(S(=O)(=O)c2ccc(Cl)cc2)CC1 [MK-0752]	0 (compounds with IC50 > 20 μM, percentage inhibition <80% at 20 µM or 50 μM, or percentage enzyme inhibition <50% at 10 µM were labelled as INACTIVE)
CC(C)C[C@H](NC(=O)CNC(=O)c1cc(Cl)ccc1Cl)B(O)O [MLN2238]	0 (compounds with IC50 > 20 μM, percentage inhibition <80% at 20 µM or 50 μM, or percentage enzyme inhibition <50% at 10 µM were labelled as INACTIVE)

SMILES	Class (MPro activity class)
CCCCCOc1ccc(-c2cc(-c3ccc(C(=O)N[C@H]4C[C@@H](O)[C@@H](O)NC(=O)[C@@H]5[C@@H](O)[C@@H](C)CN5C(=O)[C@H]([C@H](O)CC(N)=O)NC(=O)[C@H]([C@H](O)[C@@H](O)c5ccc(O)c(OS(=O)(=O)O)c5)NC(=O)[C@@H]5C[C@@H](O)CN5C(=O)[C@H]([C@@H](C)O)NC4=O)cc3)no2)cc1 [Micafungin] (X1-[Orn(4R-OH,5R-OH)]T[Hyp][hTyr(3S-OH,4S-OH,3'-OSO3H)][Gln(3R-OH)][Pro(3S-OH,4S-Me)]; lactam 1-C)	0 (compounds with IC50 > 20 μM, percentage inhibition <80% at 20 µM or 50 μM, or percentage enzyme inhibition <50% at 10 µM were labelled as INACTIVE)
O=c1c(O)c(-c2cc(O)c(O)c(O)c2)oc2cc(O)cc(O)c12 [Myricetin]	1 (Compounds with IC50 < 10 µM or with a percentage of enzyme inhibition >50% at 10 µM were labelled as ACTIVE)
COc1ccc2c(c1)CN(C(=O)CCl)C(c1ccccc1)C2 (stereo not drawn) [NAU-LAT-64f4b287-4]	1 (Compounds with IC50 < 10 µM or with a percentage of enzyme inhibition >50% at 10 µM were labelled as ACTIVE)
Cc1cc(Cl)cc(CC2CCN(C(=O)CCl)CC2)c1 [NIR-THE-0d6461ce-8]	1 (Compounds with IC50 < 10 µM or with a percentage of enzyme inhibition >50% at 10 µM were labelled as ACTIVE)
Nc1cccc(C2CN(C(=O)CCl)Cc3ccccc32)c1 (stereo not drawn) [NIR-THE-c331be7a-1]	1 (Compounds with IC50 < 10 µM or with a percentage of enzyme inhibition >50% at 10 µM were labelled as ACTIVE)
N#Cc1cccc(C2CN(C(=O)CCl)Cc3ccccc32)c1 (stereo not drawn) [NIR-THE-c331be7a-2]	1 (Compounds with IC50 < 10 µM or with a percentage of enzyme inhibition >50% at 10 µM were labelled as ACTIVE)
Cc1cccc(C2CN(C(=O)CCl)Cc3ccccc32)c1 (stereo not drawn) [NIR-THE-c331be7a-6]	1 (Compounds with IC50 < 10 µM or with a percentage of enzyme inhibition >50% at 10 µM were labelled as ACTIVE)
N=C(N)c1ccc2cc(OC(=O)c3ccc(N=C(N)N)cc3)ccc2c1 [Nafamostat]	0 (compounds with IC50 > 20 μM, percentage inhibition <80% at 20 µM or 50 μM, or percentage enzyme inhibition <50% at 10 µM were labelled as INACTIVE)
CCCC[C@H](NC(=O)[C@@H]1[C@@H]2[C@H](CN1C(=O)[C@@H](NC(=O)NC1(CS(=O)(=O)C(C)(C)C)CCCCC1)C(C)(C)C)C2(C)C)C(=O)C(=O)NC1CC1 [Narlaprevir]	1 (Compounds with IC50 < 10 µM or with a percentage of enzyme inhibition >50% at 10 µM were labelled as ACTIVE)
Cc1c(O)cccc1C(=O)N[C@@H](CSc1ccccc1)[C@H](O)CN1C[C@H]2CCCC[C@H]2C[C@H]1C(=O)NC(C)(C)C [Nelfinavir]	0 (compounds with IC50 > 20 μM, percentage inhibition <80% at 20 µM or 50 μM, or percentage enzyme inhibition <50% at 10 µM were labelled as INACTIVE)
COc1ccc(CC(NC(=O)C(C)NC(=O)CN2CCOCC2)C(=O)NC(Cc2ccccc2)C(=O)C2(C)CO2)cc1 (stereo not drawn) [ONX-0914]	0 (compounds with IC50 > 20 μM, percentage inhibition <80% at 20 µM or 50 μM, or percentage enzyme inhibition <50% at 10 µM were labelled as INACTIVE)
CC(C)(F)C[C@H](N[C@@H](c1ccc(-c2ccc(S(C)(=O)=O)cc2)cc1)C(F)(F)F)C(=O)NC1(C#N)CC1 [Odanacatib]	0 (compounds with IC50 > 20 μM, percentage inhibition <80% at 20 µM or 50 μM, or percentage enzyme inhibition <50% at 10 µM were labelled as INACTIVE)
COC(=O)N[C@H](C(=O)N1CCC[C@H]1C(=O)Nc1ccc([C@@H]2CC[C@@H](c3ccc(NC(=O)[C@@H]4CCCN4C(=O)[C@@H](NC(=O)OC)C(C)C)cc3)N2c2ccc(C(C)(C)C)cc2)cc1)C(C)C [Ombitasvir]	0 (compounds with IC50 > 20 μM, percentage inhibition <80% at 20 µM or 50 μM, or percentage enzyme inhibition <50% at 10 µM were labelled as INACTIVE)
COC[C@H](NC(=O)c1cnc(C)s1)C(=O)N[C@@H](COC)C(=O)N[C@@H](Cc1ccccc1)C(=O)[C@@]1(C)CO1 [Oprozomib]	0 (compounds with IC50 > 20 μM, percentage inhibition <80% at 20 µM or 50 μM, or percentage enzyme inhibition <50% at 10 µM were labelled as INACTIVE)
COc1c(OC2OC(C(=O)O)C(O)C(O)C2O)cc2oc(-c3ccccc3)cc(=O)c2c1O [Oroxylin A-7-O-β-D-glucuronide]	0 (compounds with IC50 > 20 μM, percentage inhibition <80% at 20 µM or 50 μM, or percentage enzyme inhibition <50% at 10 µM were labelled as INACTIVE)
CCOC(=O)C1=C[C@@H](OC(CC)CC)[C@H](NC(C)=O)[C@@H](N)C1 [Oseltamivir]	0 (compounds with IC50 > 20 μM, percentage inhibition <80% at 20 µM or 50 μM, or percentage enzyme inhibition <50% at 10 µM were labelled as INACTIVE)
CC(=O)c1cc([N+](=O)[O-])c(Sc2cccc(Cl)c2Cl)s1 [P005091]	0 (compounds with IC50 > 20 μM, percentage inhibition <80% at 20 µM or 50 μM, or percentage enzyme inhibition <50% at 10 µM were labelled as INACTIVE)
CC(=O)c1cc([N+](=O)[O-])c(Sc2ccc(F)cc2F)s1 [P22077]	0 (compounds with IC50 > 20 μM, percentage inhibition <80% at 20 µM or 50 μM, or percentage enzyme inhibition <50% at 10 µM were labelled as INACTIVE)
CC(C)CCC(=O)CC1c2ccccc2C(=O)N1c1ccc2ccc(Cl)nc2n1 (stereo not drawn) [PAGOCLONE]	0 (compounds with IC50 > 20 μM, percentage inhibition <80% at 20 µM or 50 μM, or percentage enzyme inhibition <50% at 10 µM were labelled as INACTIVE)
